According to US7786141B2 (Vertex Pharmaceuticals Incorporated, priority 2004, dated 2010):
Like-named read-outs stand apart in the source and are kept apart here.

Tests used:
[1] = target: T1, M1 muscarinic receptor (Homo sapiens, UniProt P11229); assay: Functional mobilization of intracellular calcium (FLIPR) in M1-CHO cells; type: cell-based
T1 construct: expressed in transfected cells; host or cells: CHO (M1-CHO)
T1 sequence (P11229 1-460): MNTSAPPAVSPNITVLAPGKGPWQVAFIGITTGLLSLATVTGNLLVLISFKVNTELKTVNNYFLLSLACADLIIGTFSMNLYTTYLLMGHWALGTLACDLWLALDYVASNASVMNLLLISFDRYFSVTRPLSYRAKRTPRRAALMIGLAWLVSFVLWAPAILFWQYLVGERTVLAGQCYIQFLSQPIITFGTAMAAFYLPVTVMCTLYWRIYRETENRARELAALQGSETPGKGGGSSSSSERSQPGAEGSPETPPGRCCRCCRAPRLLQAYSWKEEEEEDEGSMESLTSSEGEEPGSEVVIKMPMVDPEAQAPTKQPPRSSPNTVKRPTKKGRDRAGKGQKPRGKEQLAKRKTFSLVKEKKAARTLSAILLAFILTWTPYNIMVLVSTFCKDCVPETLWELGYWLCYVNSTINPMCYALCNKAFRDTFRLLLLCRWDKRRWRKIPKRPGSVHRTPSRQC
Method: (§1) Functional Mobilization of Intracellular Calcium to Determine Muscarinic Receptor Activity:
(§2) CHO cells expressing muscarinic receptors (M1 to M5) are grown as monolayers in tissue culture flasks at 37° C. in a humidified atmosphere containing 5% CO2 and passaged every 3-5 days. The growth media is Dulbecco's modified eagles medium (DMEM, Gibco Cat# 12430-054), containing 25 mM Hepes and supplemented with Fetal Bovine Serum (Hyclone, cat# SH30071.03), 0.1 mM of MEM non-essential amino acids (GIBCO, Cat# 11140-050), 1 mM MEM Sodium Pyruvate (GIBCO Cat# 11360-070) and 100 units/ml of Penicillin G and 100 μg/ml of Streptomycin (GIBCO Cat# 15140-122). The recombinant muscarinic receptor cell lines are grown under antibiotic pressure with media containing 25 μg/ml zeocin and 500 μg/ml G418 (M1-CHO), 4 μg/ml puromycin, 50 μg/ml zeocin and 2.5 μg/ml blasticidin (M2 and M4-CHO) or 50 μg/ml zeocin and 4 μg/ml puromycin (M3 and M5-CHO).
(§3) Cells are harvested at 80-90% confluence using Versene (GIBCO Cat# 15040-066), collected by centrifugation and seeded 18-24 hrs prior to running the calcium assay at a density of 5,000 cells/well in back-walled, clear-bottomed 384-well plates (BD Biocoat, poly-D-lysine, Cat#356663). The day of the experiment, the cells are washed with a plate washer (Bioteck Instruments, ELX 405) using bath 1 buffer (140-mM NaCl, 4.5-mM KCl, 2-mM CaCl2, 1-mM MgCl2, 10-mM Hepes-Na, 10-mM Glucose, pH 7.4, with NaOH) containing 1 mM Probenecid. Next, the calcium dye Fluo-3 (25 μl/well of Fluo-3 AM at 4 μM, Molecular Probes F-1241, in Bath 1 buffer containing 1 mM Probenecid) is added to the 25 μl of Bath 1 remaining in each well after the plate wash and the dye is loaded at 37° C. in the tissue culture incubator for 60-90 min. The fluorescent dye is removed using the plate washer with Bath 1 containing 1 mM Probenecid, leaving 25 μl/well of this solution after the wash. Alternatively, cells can be loaded with the calcium indicator from Molecular Devices (Calcium 3 Assay Reagents, Cat # R7181) adding 5 μl of a 5× solution dye in Bath 1 containing 1 mM Probenecid (10 ml per dye flask cat# R7182 to generate a solution 20×) to 20 μl of the same buffer. After loading for 60 min, the experiment can be run without having to remove the dye.
(§4) Compounds are prepared at a 2× fold concentration in a 96-well plate (round bottom, Costar Corning cat# 3656), by reconstituting the pre-spotted compounds in bath 1 containing 1 mM probenecid. The final concentration DMSO is 0.5%, and the amount of DMSO is normalized across the assay plate. To determine an agonist action of the compounds on muscarinic receptors, the reconstituted compounds are added (25 μl compound/well) to the cell assay plate (containing 25 μl/well) using the multi-channel robotic system of the FLIPR 3 Instrument (Molecular Devices, Sunnyvale, Calif.). To determine a functional inhibitory action of the compounds on muscarinic receptors, the reconstituted compounds are added (25 μl compound/well) to the assay plate and pre-incubated for 15 min prior to adding 25 μl of Carbachol at 3× the EC80 for each muscarinic subtype. Alternatively, the compounds can be co-applied simultaneously with the agonist. In both assay modes, the fluorescence is recorded for 60 sec (excitation wavelength is […] and emission wavelength 540 nm) using the FLIPR 3 instrument.
(§5) The potency, efficacy and selectivity of the muscarinic compounds were evaluated by screening the compound activity across the whole family (M1 to M5 cells). Compounds were also screened for activity on other proteins such as other GPCRs and ion channels to determine selectivity on M4 receptors.

[2] = target: T2, M4 muscarinic receptor (Homo sapiens, UniProt P08173); assay: Functional mobilization of intracellular calcium (FLIPR) in M4-CHO cells; type: cell-based
T2 construct: expressed in transfected cells; host or cells: CHO (M4-CHO)
T2 sequence (P08173 1-479): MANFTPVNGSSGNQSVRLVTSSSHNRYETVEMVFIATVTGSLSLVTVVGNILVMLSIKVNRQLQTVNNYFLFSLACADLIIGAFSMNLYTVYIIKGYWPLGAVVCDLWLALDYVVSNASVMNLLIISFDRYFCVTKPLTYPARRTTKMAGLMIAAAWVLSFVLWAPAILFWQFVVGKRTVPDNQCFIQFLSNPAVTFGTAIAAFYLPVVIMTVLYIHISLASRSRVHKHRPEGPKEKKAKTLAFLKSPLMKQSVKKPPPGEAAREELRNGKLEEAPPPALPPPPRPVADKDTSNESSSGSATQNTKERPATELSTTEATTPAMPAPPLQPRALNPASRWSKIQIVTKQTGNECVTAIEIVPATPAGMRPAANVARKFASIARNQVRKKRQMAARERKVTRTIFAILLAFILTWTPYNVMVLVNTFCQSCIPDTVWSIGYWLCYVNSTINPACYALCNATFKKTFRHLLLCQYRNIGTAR
Method: as §1, §2, §3, §4, §5

[3] = M1 receptor, calcium mobilization
[4] = M1 receptor, calcium mobilization, read-out: M1 Efficacy
[5] = M4 receptor, calcium mobilization
[6] = M4 receptor, calcium mobilization, read-out: M4 Efficacy
[7] = Table 4, 100% efficacy is the maximum response obtained with the Carbachol control
[8] = Table 4, modulating M1 receptor
[9] = Table 4, modulating M4 receptor
[10] = Table 4, M1 receptor, calcium mobilization (FLIPR)
[11] = Table 4, M4 receptor, calcium mobilization (FLIPR)

| Compound | M1 Activity [1, 3] | Emax [1, 4] [%] | M4 Activity [2, 5] | Emax [2, 6] [%] | Emax [1, 7] [%] | M1 Activity [1, 8] | Emax [2, 7] [%] | M4 Activity [2, 9] | also measured |
| --- | --- | --- | --- | --- | --- | --- | --- | --- | --- |
| Clc1ccc2c(c1)C1(CCN(C3CCOCC3)CC1)CO2 [compound 257] | x (activity was measured to be greater than 1.0 μM) | > 85 | x (activity was measured to be greater than 1.0 μM) | < 65 |  |  |  |  |  |
| CC(=O)NC1CCC2(CCN(CCC3CCCN(C(=O)OC(C)C)C3)CC2)c2ccccc21 (stereo not shown) [compound 731] |  |  |  |  | < 25 | xxx (activity was measured to be less than 2.0 μM) | < 25 | x (activity was measured to be greater than 5.0 μM) |  |
| CC(=O)N[C@H]1CC2(CCN(CC3CC4CCC3CC4)CC2)c2ccccc21 (stereo partly shown) [compound 29] | xxx (activity was measured to be less than 0.1 μM) | > 85 | xxx (activity was measured to be less than 0.1 μM) | > 85 |  |  |  |  |  |
| CCOC(=O)N1C2CCC1CC(N1CCC3(CC1)CN(C(C)=O)c1ccc(F)cc13)C2 (stereo not shown) [compound 371] | xxx (activity was measured to be less than 0.1 μM) | 65 to 85 | x (activity was measured to be greater than 1.0 μM) | > 85 |  |  |  |  |  |
| O=C(O[C@@H]1CCOC1)N1CC2(CCN(C3CC4CCC(C3)N4C(=O)O[C@@H]3CCOC3)CC2)c2cc(F)ccc21 (stereo partly shown) [compound 243] | xxx (activity was measured to be less than 0.1 μM) |  | x (activity was measured to be greater than 1.0 μM) |  |  |  |  |  | M1 Efficacy [1, 3]: xx (efficacy was calculated to be between 85% and 65%); M4 Efficacy [2, 5]: xx (efficacy was calculated to be between 85% and 65%) |
| CN(C)C(=O)N1CC2(CCN(C3CCN(C(=O)c4cccnc4)CC3)CC2)c2cc(F)ccc21 [compound 795] |  |  |  |  | < 25 | xx (activity was measured to be between 2.0 μM and 5.0 μM) | < 25 | x (activity was measured to be greater than 5.0 μM) |  |
| CCc1nccnc1N1CCC(N2CCC3(CC2)CN(C(=O)N(C)C)c2ccc(F)cc23)CC1 [compound 967] |  |  |  |  | 25 to 100 |  | 25 to 100 |  | M1 Activity [1, 10]: xx (activity was measured to be between 2.0 μM and 5.0 μM); M4 Activity [2, 11]: xx (activity was measured to be between 2.0 μM and 5.0 μM) |
| CC#CC(C)OC(=O)N1CCC(N2CCC3(CC2)CN(C(C)=O)c2ccccc23)CC1 (stereo not shown) [compound 589] |  |  |  |  | < 25 | x (activity was measured to be greater than 5.0 μM) | < 25 | x (activity was measured to be greater than 5.0 μM) |  |
| CC(=O)N[C@H]1CCC2(CCN(CC3CCCC3)CC2)c2ccccc21 [compound 993] |  |  |  |  | 25 to 100 |  | 25 to 100 |  | M1 Activity [1, 10]: xxx (activity was measured to be less than 2.0 μM); M4 Activity [2, 11]: xxx (activity was measured to be less than 2.0 μM) |
| CCOC(=O)N1CCC(N2CCC3(CC2)CN(C(=O)c2ccc(C)cc2)c2ccc(F)cc23)CC1 [compound 330] | x (activity was measured to be greater than 1.0 μM) | < 65 | x (activity was measured to be greater than 1.0 μM) | < 65 |  |  |  |  |  |
| CCOC(=O)N1CCC(N2CCC3(CC2)CN(C(=O)c2cccc(OC)c2)c2ccc(F)cc23)CC1 [compound 45] | xxx (activity was measured to be less than 0.1 μM) | > 85 | xxx (activity was measured to be less than 0.1 μM) | 65 to 85 |  |  |  |  |  |
| CCOC(=O)N1CC[C@@H](CN2CCC3(CC2)CN(C(C)=O)c2cccc(C)c23)C1 [compound 502] |  |  |  |  | 25 to 100 | xxx (activity was measured to be less than 2.0 μM) | 25 to 100 | xx (activity was measured to be between 2.0 μM and 5.0 μM) |  |
| CC(C)NC(=O)N1C2CCC1CC(N1CCC3(CC1)COc1ccc(F)cc13)C2 (stereo not shown) [compound 289] | xxx (activity was measured to be less than 0.1 μM) | < 65 | x (activity was measured to be greater than 1.0 μM) | < 65 |  |  |  |  |  |
| C[C@@H](O)CC(=O)N1CCC(N2CCC3(CC2)CN(C(=O)N(C)C)c2ccc(F)cc23)CC1 [compound 463] |  |  |  |  | 25 to 100 | x (activity was measured to be greater than 5.0 μM) | < 25 | x (activity was measured to be greater than 5.0 μM) |  |
| CC(=O)N1CC2(CCN(C3CCCCCCC3)CC2)c2cc(F)ccc21 [compound 248] | xx (activity was measured to be between 0.1 μM and 1.0 μM) | 65 to 85 | x (activity was measured to be greater than 1.0 μM) | < 65 |  |  |  |  |  |
| CCOC(=O)N1CCC(N2CCC3(CC2)CN(c2nc(C)ns2)c2ccccc23)CC1 [compound 700] |  |  |  |  | > 100 | xxx (activity was measured to be less than 2.0 μM) | > 100 | xxx (activity was measured to be less than 2.0 μM) |  |
| CCOC(=O)N1CCC(N2CCC3(CC2)CN(C(=O)N2CCOCC2)c2ccccc23)CC1 [compound 903] |  |  |  |  | 25 to 100 |  | 25 to 100 |  | M1 Activity [1, 10]: xx (activity was measured to be between 2.0 μM and 5.0 μM); M4 Activity [2, 11]: xxx (activity was measured to be less than 2.0 μM) |
| COc1cc2c(cc1OC)C1(CCN(CC3CCCCC3)CC1)C[C@@H]2N(C(C)=O)[C@@H](C)c1ccccc1 [compound 931] |  |  |  |  | < 25 |  | < 25 |  | M1 Activity [1, 10]: x (activity was measured to be greater than 5.0 μM); M4 Activity [2, 11]: x (activity was measured to be greater than 5.0 μM) |
| CCOC(=O)N1CCC(N2CCC3(CC2)CN(C(C)=O)c2ccc(-c4ccsc4)cc23)CC1 [compound 165] | x (activity was measured to be greater than 1.0 μM) | 65 to 85 | x (activity was measured to be greater than 1.0 μM) | > 85 |  |  |  |  |  |
